Starred links: 1 amine or outer side, 2 acyl side, 3 side chain; linkers in the order of their positions; H or OH if unused. Non-standard residues stand in square brackets, D forms with d. Residues, ends and D or L forms follow the SMILES beside them. Groups on a side chain read outwards from the residue. *: point of attachment. C20 diacid = O=C(O)CCCCCCCCCCCCCCCCCCC(=O)*; C18 diacid = O=C(O)CCCCCCCCCCCCCCCCC(=O)*; γGlu = O=C(O)[C@H](CCC(=O)[*:2])N[*:1]; αMeF = C[C@](N)(Cc1ccccc1)C(=O)O; AEEA = NCCOCCOCC(=O)O; Aib = CC(C)(N)C(=O)O
Assays:
[1] = molecular target: human glucagon receptor (hGCGR) (Homo sapiens, UniProt P47871); assay: cAMP production (HTRF) in CHO cells expressing hGCGR; format: cell-based; set-up: expressed in transfected cells; conditions: Table 6, peptides modified at position 17; cAMP in CHO hGCGR cells; geometric mean; read-out: hGluc-R EC50
In short: (§1)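 Cells were resuspended in assay buffer at batch-optimized density, typically 1×10^5 cells/mL for hGLP-1R and 2×10^5 cells/mL for hGCGR. After 30 min incubation at room temperature with compound, cAMP was measured by two-step HTRF. EC50 values came from 4-parameter logistic fits of % Delta F.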

[2] = molecular target: human GLP-1 receptor (hGLP-1R) (Homo sapiens, UniProt P43220); assay: cAMP production (HTRF) in CHO cells expressing hGLP-1R; format: cell-based; set-up: expressed in transfected cells; conditions: for EC50: Table 6, peptides modified at position 17, cAMP in CHO hGLP-1R cells, geometric mean, read-out: hGLP-1R EC50; for % Relative Potency Ratio: Table 6, % GLP-1R activity relative to GLP-1 / % GlucR activity relative to glucagon
In short: as §1

human GLP-1 receptor (hGLP-1R), sequence (P43220 24-463): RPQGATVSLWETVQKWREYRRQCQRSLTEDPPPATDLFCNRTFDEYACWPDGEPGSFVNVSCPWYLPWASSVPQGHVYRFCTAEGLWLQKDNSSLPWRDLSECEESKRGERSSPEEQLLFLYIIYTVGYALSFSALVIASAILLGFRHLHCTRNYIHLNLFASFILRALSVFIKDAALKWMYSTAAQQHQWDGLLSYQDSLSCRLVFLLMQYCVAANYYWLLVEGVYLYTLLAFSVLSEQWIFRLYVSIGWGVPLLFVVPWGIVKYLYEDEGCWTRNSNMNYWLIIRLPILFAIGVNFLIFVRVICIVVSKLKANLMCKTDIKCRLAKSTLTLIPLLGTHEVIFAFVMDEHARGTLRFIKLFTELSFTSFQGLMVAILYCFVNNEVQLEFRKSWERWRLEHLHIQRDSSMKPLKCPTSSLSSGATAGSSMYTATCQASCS
human glucagon receptor (hGCGR), sequence (P47871 26-477): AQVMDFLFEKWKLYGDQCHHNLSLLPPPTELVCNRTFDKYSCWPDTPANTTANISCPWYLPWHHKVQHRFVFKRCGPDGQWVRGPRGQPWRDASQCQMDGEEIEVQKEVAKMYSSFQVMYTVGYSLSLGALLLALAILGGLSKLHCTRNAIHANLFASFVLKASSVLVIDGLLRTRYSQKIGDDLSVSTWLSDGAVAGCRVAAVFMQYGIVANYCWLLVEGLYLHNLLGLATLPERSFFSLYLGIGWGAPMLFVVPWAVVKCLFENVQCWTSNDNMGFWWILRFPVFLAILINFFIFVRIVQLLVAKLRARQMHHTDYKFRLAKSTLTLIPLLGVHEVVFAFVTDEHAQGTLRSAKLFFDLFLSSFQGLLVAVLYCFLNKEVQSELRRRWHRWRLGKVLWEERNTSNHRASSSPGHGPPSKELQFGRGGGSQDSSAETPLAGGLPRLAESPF

| SMILES | EC50 [1] | EC50 [2] | % Relative Potency Ratio [2] |
| --- | --- | --- | --- |
| CC(C)C[C@H](NC(=O)[C@H](Cc1c[nH]c2ccccc12)NC(=O)[C@H](CCC(N)=O)NC(=O)[C@@H](NC(=O)[C@H](Cc1ccccc1)NC(=O)[C@H](CC(=O)O)NC(=O)[C@H](CCCNC(=N)N)NC(=O)[C@H](C)NC(=O)[C@H](CCCNC(=N)N)NC(=O)[C@H](CCCCNC(=O)COCCOCCNC(=O)COCCOCCNC(=O)CC[C@H](NC(=O)CC[C@H](NC(=O)CCCCCCCCCCCCCCCCCCC(=O)O)C(=O)O)C(=O)O)NC(=O)[C@@H](NC(=O)[C@H](CC(=O)O)NC(=O)[C@H](CC(C)C)NC(=O)[C@](C)(Cc1ccccc1)NC(=O)[C@H](CCCCN)NC(=O)[C@H](CO)NC(=O)[C@@H](NC(=O)[C@H](CC(=O)O)NC(=O)[C@H](CO)NC(=O)[C@@H](NC(=O)[C@H](Cc1ccccc1)NC(=O)[C@@H](NC(=O)CNC(=O)[C@H](CCC(N)=O)NC(=O)C(C)(C)NC(=O)[C@@H](N)Cc1c[nH]cn1)[C@@H](C)O)[C@@H](C)O)C(C)C)[C@@H](C)O)C(C)C)C(=O)N[C@@H](CC(C)C)C(=O)N[C@@H](CCC(=O)O)C(=O)NC(C)(C)C(=O)NCC(=O)O [Peptide 449] | 0.242 nM | 0.207 nM | 2.3 |
| CC(C)C[C@H](NC(=O)[C@H](Cc1c[nH]c2ccccc12)NC(=O)[C@H](CC(C)C)NC(=O)[C@@H](NC(=O)[C@H](Cc1ccccc1)NC(=O)[C@H](CC(=O)O)NC(=O)[C@H](CCCNC(=N)N)NC(=O)[C@H](C)NC(=O)[C@H](CCCNC(=N)N)NC(=O)[C@H](CCCCNC(=O)COCCOCCNC(=O)COCCOCCNC(=O)CC[C@H](NC(=O)CCCCCCCCCCCCCCCCCCC(=O)O)C(=O)O)NC(=O)[C@H](CCCCN)NC(=O)[C@H](CC(=O)O)NC(=O)[C@H](CC(C)C)NC(=O)[C@](C)(Cc1ccccc1)NC(=O)[C@H](CCCCN)NC(=O)[C@H](CO)NC(=O)[C@@H](NC(=O)[C@H](CC(=O)O)NC(=O)[C@H](CO)NC(=O)[C@@H](NC(=O)[C@H](Cc1ccccc1)NC(=O)[C@@H](NC(=O)CNC(=O)[C@H](CCC(N)=O)NC(=O)C(C)(C)NC(=O)[C@@H](N)Cc1c[nH]cn1)[C@@H](C)O)[C@@H](C)O)C(C)C)C(C)C)C(=O)N[C@@H](CC(C)C)C(=O)NC(C)(C)C(=O)N[C@@H](CCC(=O)O)C(N)=O [Peptide 451] (H-H[Aib]QGTFTSDVSK[αMeF]LDKK([AEEA-AEEA-γGlu-C20 diacid])RARDFVLWLL[Aib]E-NH2; N-terminus assumed) | 0.503 nM | 0.895 nM | 1.1 |
| CC(C)C[C@H](NC(=O)[C@H](C)NC(=O)[C@H](CCCNC(=N)N)NC(=O)[C@H](CCCCNC(=O)COCCOCCNC(=O)COCCOCCNC(=O)CC[C@H](NC(=O)CCCCCCCCCCCCCCCCCCC(=O)O)C(=O)O)NC(=O)[C@H](CCCCN)NC(=O)[C@H](CC(=O)O)NC(=O)[C@H](CC(C)C)NC(=O)[C@](C)(Cc1ccccc1)NC(=O)[C@H](CCCCN)NC(=O)[C@H](CO)NC(=O)[C@@H](NC(=O)[C@H](CC(=O)O)NC(=O)[C@H](CO)NC(=O)[C@@H](NC(=O)[C@H](Cc1ccccc1)NC(=O)[C@@H](NC(=O)CNC(=O)[C@H](CCC(N)=O)NC(=O)C(C)(C)NC(=O)[C@@H](N)Cc1c[nH]cn1)[C@@H](C)O)[C@@H](C)O)C(C)C)C(=O)N[C@@H](CC(=O)O)C(=O)N[C@@H](Cc1ccccc1)C(=O)N[C@H](C(=O)N[C@@H](CCCNC(=N)N)C(=O)N[C@@H](Cc1c[nH]c2ccccc12)C(=O)N[C@@H](CC(C)C)C(=O)N[C@@H](CC(C)C)C(=O)NC(C)(C)C(=O)N[C@@H](CCC(=O)O)C(N)=O)C(C)C [Peptide 452] (H-H[Aib]QGTFTSDVSK[αMeF]LDKK([AEEA-AEEA-γGlu-C20 diacid])RALDFVRWLL[Aib]E-NH2) | 0.151 nM | 0.495 nM | 0.6 |
| CC(C)C[C@H](NC(=O)[C@H](Cc1c[nH]c2ccccc12)NC(=O)[C@H](CCCNC(=N)N)NC(=O)[C@@H](NC(=O)[C@H](Cc1ccccc1)NC(=O)[C@H](CC(=O)O)NC(=O)[C@H](CCC(N)=O)NC(=O)[C@H](C)NC(=O)[C@H](CCCNC(=N)N)NC(=O)[C@H](CCCCNC(=O)COCCOCCNC(=O)COCCOCCNC(=O)CC[C@H](NC(=O)CCCCCCCCCCCCCCCCCCC(=O)O)C(=O)O)NC(=O)[C@H](CCCCN)NC(=O)[C@H](CC(=O)O)NC(=O)[C@H](CC(C)C)NC(=O)[C@](C)(Cc1ccccc1)NC(=O)[C@H](CCCCN)NC(=O)[C@H](CO)NC(=O)[C@@H](NC(=O)[C@H](CC(=O)O)NC(=O)[C@H](CO)NC(=O)[C@@H](NC(=O)[C@H](Cc1ccccc1)NC(=O)[C@@H](NC(=O)CNC(=O)[C@H](CCC(N)=O)NC(=O)C(C)(C)NC(=O)[C@@H](N)Cc1c[nH]cn1)[C@@H](C)O)[C@@H](C)O)C(C)C)C(C)C)C(=O)N[C@@H](CC(C)C)C(=O)N[C@@H](CCC(=O)O)C(=O)NC(C)(C)C(=O)NCC(N)=O [Peptide 453] | 0.162 nM | 0.17 nM | 1.9 |
| CC(C)C[C@H](NC(=O)[C@H](Cc1c[nH]c2ccccc12)NC(=O)[C@H](CCCNC(=N)N)NC(=O)[C@@H](NC(=O)[C@H](Cc1ccccc1)NC(=O)[C@H](CC(=O)O)NC(=O)[C@H](CCC(N)=O)NC(=O)[C@H](C)NC(=O)[C@H](CCCNC(=N)N)NC(=O)[C@H](CCCCNC(=O)COCCOCCNC(=O)COCCOCCNC(=O)CC[C@H](NC(=O)CCCCCCCCCCCCCCCCCCC(=O)O)C(=O)O)NC(=O)[C@H](CCCCN)NC(=O)[C@H](CC(=O)O)NC(=O)[C@H](CC(C)C)NC(=O)[C@](C)(Cc1ccccc1)NC(=O)[C@H](CCCCN)NC(=O)[C@H](CO)NC(=O)[C@@H](NC(=O)[C@H](CC(=O)O)NC(=O)[C@H](CO)NC(=O)[C@@H](NC(=O)[C@H](Cc1ccccc1)NC(=O)[C@@H](NC(=O)CNC(=O)[C@H](CCC(N)=O)NC(=O)C(C)(C)NC(=O)[C@@H](N)Cc1c[nH]cn1)[C@@H](C)O)[C@@H](C)O)C(C)C)C(C)C)C(=O)N[C@@H](CCC(=O)O)C(=O)N[C@@H](C)C(=O)NC(C)(C)C(=O)NCC(N)=O [Peptide 454] (H-H[Aib]QGTFTSDVSK[αMeF]LDKK([AEEA-AEEA-γGlu-C20 diacid])RAQDFVRWLEA[Aib]G-NH2) | 0.274 nM | 0.173 nM | 3.1 |

These reach a lower EC50 [1]. Values come first.

| EC50 [1] | EC50 [2] | % Relative Potency Ratio [2] | SMILES |
| --- | --- | --- | --- |
| 0.0578 nM | 0.0573 nM | 2.0 | CC(C)C[C@H](NC(=O)[C@H](Cc1c[nH]c2ccccc12)NC(=O)[C@H](CCCNC(=N)N)NC(=O)[C@@H](NC(=O)[C@H](Cc1ccccc1)NC(=O)[C@H](CC(=O)O)NC(=O)[C@H](CCC(N)=O)NC(=O)[C@H](C)NC(=O)[C@H](CCCNC(=N)N)NC(=O)[C@H](CCCCNC(=O)COCCOCCNC(=O)COCCOCCNC(=O)CC[C@H](NC(=O)CC[C@H](NC(=O)CCCCCCCCCCCCCCCCC(=O)O)C(=O)O)C(=O)O)NC(=O)[C@H](CCCCN)NC(=O)[C@H](CC(=O)O)NC(=O)[C@H](CC(C)C)NC(=O)[C@](C)(Cc1ccccc1)NC(=O)[C@H](CCCCN)NC(=O)[C@H](CO)NC(=O)[C@@H](NC(=O)[C@H](CC(=O)O)NC(=O)[C@H](CO)NC(=O)[C@@H](NC(=O)[C@H](Cc1ccccc1)NC(=O)[C@@H](NC(=O)CNC(=O)[C@H](CCC(N)=O)NC(=O)C(C)(C)NC(=O)[C@@H](N)Cc1c[nH]cn1)[C@@H](C)O)[C@@H](C)O)C(C)C)C(C)C)C(=O)N[C@@H](CC(C)C)C(=O)N[C@@H](CCC(=O)O)C(=O)NC(C)(C)C(=O)NCC(=O)O [Peptide 450] (H-H[Aib]QGTFTSDVSK[αMeF]LDKK([AEEA-AEEA-γGlu-γGlu-C18 diacid])RAQDFVRWLLE[Aib]G-OH; N-terminus assumed) |
| 0.114 nM | 0.127 nM | 1.8 | CC(C)C[C@H](NC(=O)[C@H](Cc1c[nH]c2ccccc12)NC(=O)[C@H](CCCNC(=N)N)NC(=O)[C@@H](NC(=O)[C@H](Cc1ccccc1)NC(=O)[C@H](CC(=O)O)NC(=O)[C@H](CCC(N)=O)NC(=O)[C@H](C)NC(=O)[C@H](CCCNC(=N)N)NC(=O)[C@H](CCCCNC(=O)COCCOCCNC(=O)COCCOCCNC(=O)CC[C@H](NC(=O)CC[C@H](NC(=O)CCCCCCCCCCCCCCCCCCC(=O)O)C(=O)O)C(=O)O)NC(=O)[C@H](CCCCN)NC(=O)[C@H](CC(=O)O)NC(=O)[C@H](CC(C)C)NC(=O)[C@](C)(Cc1ccccc1)NC(=O)[C@H](CCCCN)NC(=O)[C@H](CO)NC(=O)[C@@H](NC(=O)[C@H](CC(=O)O)NC(=O)[C@H](CO)NC(=O)[C@@H](NC(=O)[C@H](Cc1ccccc1)NC(=O)[C@@H](NC(=O)CNC(=O)[C@H](CCC(N)=O)NC(=O)C(C)(C)NC(=O)[C@@H](N)Cc1c[nH]cn1)[C@@H](C)O)[C@@H](C)O)C(C)C)C(C)C)C(=O)N[C@@H](CC(C)C)C(=O)NC(C)(C)C(=O)N[C@@H](CCC(=O)O)C(N)=O [Peptide 455] (H-H[Aib]QGTFTSDVSK[αMeF]LDKK([AEEA-AEEA-γGlu-γGlu-C20 diacid])RAQDFVRWLL[Aib]E-NH2) |
| 0.0803 nM | 0.133 nM | 1.2 | CC(C)C[C@H](NC(=O)[C@H](Cc1c[nH]c2ccccc12)NC(=O)[C@H](CCCNC(=N)N)NC(=O)[C@@H](NC(=O)[C@H](Cc1ccccc1)NC(=O)[C@H](CC(=O)O)NC(=O)[C@H](CCC(N)=O)NC(=O)[C@H](C)NC(=O)[C@H](CCCNC(=N)N)NC(=O)[C@H](CCCCNC(=O)COCCOCCNC(=O)COCCOCCNC(=O)CC[C@H](NC(=O)CCCCCCCCCCCCCCCCCCC(=O)O)C(=O)O)NC(=O)[C@H](CCCNC(=N)N)NC(=O)[C@H](CC(=O)O)NC(=O)[C@H](CC(C)C)NC(=O)[C@](C)(Cc1ccccc1)NC(=O)[C@H](CCCCN)NC(=O)[C@H](CO)NC(=O)[C@@H](NC(=O)[C@H](CC(=O)O)NC(=O)[C@H](CO)NC(=O)[C@@H](NC(=O)[C@H](Cc1ccccc1)NC(=O)[C@@H](NC(=O)CNC(=O)[C@H](CCC(N)=O)NC(=O)C(C)(C)NC(=O)[C@@H](N)Cc1c[nH]cn1)[C@@H](C)O)[C@@H](C)O)C(C)C)C(C)C)C(=O)N[C@@H](CC(C)C)C(=O)NC(C)(C)C(=O)N[C@@H](CCC(=O)O)C(N)=O [Peptide 456] (H-H[Aib]QGTFTSDVSK[αMeF]LDRK([AEEA-AEEA-γGlu-C20 diacid])RAQDFVRWLL[Aib]E-NH2; N-terminus assumed) |

From patent US20250353891A1 (MEDIMMUNE LIMITED, priority 2022, published 2025)
